Results published in ChEMBL document CHEMBL1828590 (J Med Chem, 2011).

What was measured:
HCT-116 = experiment: Antiproliferative activity against human HCT116 cells after 96 hrs by celltiter 96 assay; type: functional, cell-based; details: HCT-116, 96 h
Histone deacetylase 2 = Histone deacetylase 2 (Homo sapiens, UniProt Q92769)
Histone deacetylase 11 = target: T1, Histone deacetylase 11 (Homo sapiens, UniProt Q96DB2)
T1 sequence (Q96DB2 whole entry): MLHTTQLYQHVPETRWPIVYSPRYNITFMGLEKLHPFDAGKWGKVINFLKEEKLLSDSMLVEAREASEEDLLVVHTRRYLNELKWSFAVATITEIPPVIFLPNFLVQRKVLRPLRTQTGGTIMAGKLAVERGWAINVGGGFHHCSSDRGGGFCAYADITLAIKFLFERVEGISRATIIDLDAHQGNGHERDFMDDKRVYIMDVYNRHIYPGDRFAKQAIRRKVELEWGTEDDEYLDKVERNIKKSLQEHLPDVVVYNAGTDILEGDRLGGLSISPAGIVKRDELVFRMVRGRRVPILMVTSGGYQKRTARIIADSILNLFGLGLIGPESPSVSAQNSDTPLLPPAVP

Histone deacetylase 4 = Histone deacetylase 4 (Homo sapiens, UniProt P56524)
Cytochrome P450 2C19 = Cytochrome P450 2C19 (Homo sapiens, UniProt P33261); experiment: Inhibition of CYP2C19 in human liver microsomes by fluorescence assay; type: ADME, Microsome
CYP1A = target: T2, CYP1A (Homo sapiens, UniProt P04798+P05177); experiment: Inhibition of CYP1A in human liver microsomes by fluorescence assay; type: ADME, Microsome
T2 sequence (P04798 whole entry): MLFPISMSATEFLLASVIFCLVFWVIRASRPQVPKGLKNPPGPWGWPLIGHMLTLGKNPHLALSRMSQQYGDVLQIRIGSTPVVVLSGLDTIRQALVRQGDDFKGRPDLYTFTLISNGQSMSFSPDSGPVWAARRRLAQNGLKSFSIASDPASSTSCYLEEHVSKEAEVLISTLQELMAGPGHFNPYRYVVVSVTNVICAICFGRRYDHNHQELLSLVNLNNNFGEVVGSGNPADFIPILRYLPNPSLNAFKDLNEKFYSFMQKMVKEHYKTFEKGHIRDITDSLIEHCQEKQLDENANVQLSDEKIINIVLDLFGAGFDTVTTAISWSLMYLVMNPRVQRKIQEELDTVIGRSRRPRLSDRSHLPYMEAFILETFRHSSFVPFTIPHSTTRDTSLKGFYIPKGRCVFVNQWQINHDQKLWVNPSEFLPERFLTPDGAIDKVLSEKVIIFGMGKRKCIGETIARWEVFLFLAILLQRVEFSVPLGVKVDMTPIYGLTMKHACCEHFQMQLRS
T2 sequence (P05177 whole entry): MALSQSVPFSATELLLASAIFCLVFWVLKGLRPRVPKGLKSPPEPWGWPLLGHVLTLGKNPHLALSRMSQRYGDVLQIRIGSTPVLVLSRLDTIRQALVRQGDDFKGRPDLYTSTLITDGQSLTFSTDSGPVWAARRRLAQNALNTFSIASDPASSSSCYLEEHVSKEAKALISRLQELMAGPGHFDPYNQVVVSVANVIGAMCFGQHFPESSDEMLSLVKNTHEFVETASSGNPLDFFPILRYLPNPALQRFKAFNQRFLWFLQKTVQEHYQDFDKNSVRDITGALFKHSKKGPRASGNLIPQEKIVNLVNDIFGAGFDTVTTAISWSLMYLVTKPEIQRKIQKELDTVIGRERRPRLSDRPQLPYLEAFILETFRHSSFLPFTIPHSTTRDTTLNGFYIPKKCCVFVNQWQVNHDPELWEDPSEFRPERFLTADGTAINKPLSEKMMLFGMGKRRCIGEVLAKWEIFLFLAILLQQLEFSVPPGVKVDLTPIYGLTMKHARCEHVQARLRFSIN

Histone deacetylase 1 = Histone deacetylase 1 (Homo sapiens, UniProt Q13547)
Cytochrome P450 2D6 = Cytochrome P450 2D6 (Homo sapiens, UniProt P10635); experiment: Inhibition of CYP2D6 in human liver microsomes by fluorescence assay; type: ADME, Microsome
[1] = target: T3, Protein deacetylase HDAC6 (Homo sapiens, UniProt Q9UBN7)
T3 sequence (Q9UBN7 whole entry): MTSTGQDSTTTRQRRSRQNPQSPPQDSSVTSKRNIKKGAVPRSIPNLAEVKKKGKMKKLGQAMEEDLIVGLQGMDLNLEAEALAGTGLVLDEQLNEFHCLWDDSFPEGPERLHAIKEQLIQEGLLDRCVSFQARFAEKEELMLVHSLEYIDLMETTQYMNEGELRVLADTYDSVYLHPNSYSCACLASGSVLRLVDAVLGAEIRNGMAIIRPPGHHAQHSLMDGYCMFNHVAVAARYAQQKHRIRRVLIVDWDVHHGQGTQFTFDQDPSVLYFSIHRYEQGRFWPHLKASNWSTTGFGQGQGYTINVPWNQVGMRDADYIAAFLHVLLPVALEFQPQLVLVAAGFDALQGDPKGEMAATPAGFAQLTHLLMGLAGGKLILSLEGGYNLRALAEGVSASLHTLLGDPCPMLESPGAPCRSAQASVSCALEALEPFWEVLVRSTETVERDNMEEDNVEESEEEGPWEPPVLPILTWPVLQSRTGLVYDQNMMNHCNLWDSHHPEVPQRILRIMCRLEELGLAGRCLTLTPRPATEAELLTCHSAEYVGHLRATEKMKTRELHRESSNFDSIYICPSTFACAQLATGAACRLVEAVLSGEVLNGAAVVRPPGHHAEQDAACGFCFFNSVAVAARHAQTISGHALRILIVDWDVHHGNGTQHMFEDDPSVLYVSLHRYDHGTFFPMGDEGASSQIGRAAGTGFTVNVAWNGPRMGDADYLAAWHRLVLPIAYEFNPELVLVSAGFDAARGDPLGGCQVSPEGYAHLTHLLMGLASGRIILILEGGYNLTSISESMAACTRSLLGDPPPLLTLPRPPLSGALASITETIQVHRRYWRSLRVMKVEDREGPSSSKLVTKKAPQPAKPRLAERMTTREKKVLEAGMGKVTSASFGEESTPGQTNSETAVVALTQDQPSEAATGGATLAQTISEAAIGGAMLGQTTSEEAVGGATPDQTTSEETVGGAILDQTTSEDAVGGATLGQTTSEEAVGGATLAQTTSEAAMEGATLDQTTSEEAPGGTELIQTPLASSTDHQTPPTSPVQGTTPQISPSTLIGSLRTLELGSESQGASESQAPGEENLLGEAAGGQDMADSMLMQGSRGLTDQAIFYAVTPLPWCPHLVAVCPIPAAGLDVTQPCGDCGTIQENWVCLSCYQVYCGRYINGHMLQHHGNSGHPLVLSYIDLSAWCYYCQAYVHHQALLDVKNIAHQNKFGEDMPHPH

Histone deacetylase 9 = Histone deacetylase 9 (Homo sapiens, UniProt Q9UKV0)
PC-3 = experiment: Antiproliferative activity against human PC3 cells after 96 hrs by celltiter 96 assay; type: functional, cell-based; details: PC-3, 96 h

Sequence of Histone deacetylase 2 (Q92769 whole entry): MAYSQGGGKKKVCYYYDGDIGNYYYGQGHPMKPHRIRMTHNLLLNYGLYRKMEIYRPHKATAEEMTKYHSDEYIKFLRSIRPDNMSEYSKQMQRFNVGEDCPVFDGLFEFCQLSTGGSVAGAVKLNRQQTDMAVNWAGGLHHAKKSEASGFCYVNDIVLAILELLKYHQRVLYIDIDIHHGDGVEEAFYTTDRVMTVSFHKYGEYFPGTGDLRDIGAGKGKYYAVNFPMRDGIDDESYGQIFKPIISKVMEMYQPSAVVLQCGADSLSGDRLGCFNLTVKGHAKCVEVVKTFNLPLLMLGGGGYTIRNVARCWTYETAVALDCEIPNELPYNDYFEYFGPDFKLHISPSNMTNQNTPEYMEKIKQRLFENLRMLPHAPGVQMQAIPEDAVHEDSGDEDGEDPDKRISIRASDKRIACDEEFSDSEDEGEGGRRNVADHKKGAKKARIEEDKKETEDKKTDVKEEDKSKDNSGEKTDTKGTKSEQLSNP
Sequence of Histone deacetylase 4 (P56524 whole entry): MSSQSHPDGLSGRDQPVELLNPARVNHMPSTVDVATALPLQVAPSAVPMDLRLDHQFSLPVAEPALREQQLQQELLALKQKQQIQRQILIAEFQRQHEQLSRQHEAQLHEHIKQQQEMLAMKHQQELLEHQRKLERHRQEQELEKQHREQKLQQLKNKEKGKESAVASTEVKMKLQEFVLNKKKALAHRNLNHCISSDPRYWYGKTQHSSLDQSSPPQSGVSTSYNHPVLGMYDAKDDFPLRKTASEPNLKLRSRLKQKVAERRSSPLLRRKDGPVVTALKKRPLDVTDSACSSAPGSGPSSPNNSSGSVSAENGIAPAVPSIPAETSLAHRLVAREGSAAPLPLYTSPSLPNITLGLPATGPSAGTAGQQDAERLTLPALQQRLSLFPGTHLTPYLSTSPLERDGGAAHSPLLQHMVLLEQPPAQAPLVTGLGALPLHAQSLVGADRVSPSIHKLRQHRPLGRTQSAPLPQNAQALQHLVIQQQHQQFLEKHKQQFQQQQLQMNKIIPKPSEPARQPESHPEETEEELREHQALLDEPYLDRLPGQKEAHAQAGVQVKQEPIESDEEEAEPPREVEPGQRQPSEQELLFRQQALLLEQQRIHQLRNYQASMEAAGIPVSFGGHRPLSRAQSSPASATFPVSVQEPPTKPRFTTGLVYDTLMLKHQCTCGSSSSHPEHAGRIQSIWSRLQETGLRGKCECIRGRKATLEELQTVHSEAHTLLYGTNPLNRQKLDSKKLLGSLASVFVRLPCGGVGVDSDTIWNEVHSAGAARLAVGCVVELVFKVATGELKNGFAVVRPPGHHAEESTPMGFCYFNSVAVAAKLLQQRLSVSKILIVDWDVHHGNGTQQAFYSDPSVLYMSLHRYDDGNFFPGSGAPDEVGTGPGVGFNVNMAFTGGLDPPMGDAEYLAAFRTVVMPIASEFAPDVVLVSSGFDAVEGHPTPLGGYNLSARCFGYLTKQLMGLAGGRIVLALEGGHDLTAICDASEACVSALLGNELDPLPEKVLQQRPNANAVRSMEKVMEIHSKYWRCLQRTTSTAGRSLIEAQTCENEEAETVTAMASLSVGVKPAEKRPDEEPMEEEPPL
Sequence of Cytochrome P450 2C19 (P33261 whole entry): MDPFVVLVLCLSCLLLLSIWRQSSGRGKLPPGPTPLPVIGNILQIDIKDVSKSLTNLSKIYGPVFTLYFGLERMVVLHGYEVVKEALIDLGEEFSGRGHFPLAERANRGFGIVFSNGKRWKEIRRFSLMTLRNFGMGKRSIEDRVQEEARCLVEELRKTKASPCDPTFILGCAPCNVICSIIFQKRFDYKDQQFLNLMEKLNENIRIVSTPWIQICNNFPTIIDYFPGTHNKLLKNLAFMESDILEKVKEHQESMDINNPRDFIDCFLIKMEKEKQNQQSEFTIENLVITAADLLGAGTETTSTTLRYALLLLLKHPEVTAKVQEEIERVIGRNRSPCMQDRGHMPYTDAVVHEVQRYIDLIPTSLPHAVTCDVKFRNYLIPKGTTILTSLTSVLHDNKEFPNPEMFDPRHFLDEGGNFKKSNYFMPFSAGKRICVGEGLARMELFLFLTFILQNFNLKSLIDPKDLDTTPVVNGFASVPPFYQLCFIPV
Sequence of Histone deacetylase 9 (Q9UKV0 whole entry): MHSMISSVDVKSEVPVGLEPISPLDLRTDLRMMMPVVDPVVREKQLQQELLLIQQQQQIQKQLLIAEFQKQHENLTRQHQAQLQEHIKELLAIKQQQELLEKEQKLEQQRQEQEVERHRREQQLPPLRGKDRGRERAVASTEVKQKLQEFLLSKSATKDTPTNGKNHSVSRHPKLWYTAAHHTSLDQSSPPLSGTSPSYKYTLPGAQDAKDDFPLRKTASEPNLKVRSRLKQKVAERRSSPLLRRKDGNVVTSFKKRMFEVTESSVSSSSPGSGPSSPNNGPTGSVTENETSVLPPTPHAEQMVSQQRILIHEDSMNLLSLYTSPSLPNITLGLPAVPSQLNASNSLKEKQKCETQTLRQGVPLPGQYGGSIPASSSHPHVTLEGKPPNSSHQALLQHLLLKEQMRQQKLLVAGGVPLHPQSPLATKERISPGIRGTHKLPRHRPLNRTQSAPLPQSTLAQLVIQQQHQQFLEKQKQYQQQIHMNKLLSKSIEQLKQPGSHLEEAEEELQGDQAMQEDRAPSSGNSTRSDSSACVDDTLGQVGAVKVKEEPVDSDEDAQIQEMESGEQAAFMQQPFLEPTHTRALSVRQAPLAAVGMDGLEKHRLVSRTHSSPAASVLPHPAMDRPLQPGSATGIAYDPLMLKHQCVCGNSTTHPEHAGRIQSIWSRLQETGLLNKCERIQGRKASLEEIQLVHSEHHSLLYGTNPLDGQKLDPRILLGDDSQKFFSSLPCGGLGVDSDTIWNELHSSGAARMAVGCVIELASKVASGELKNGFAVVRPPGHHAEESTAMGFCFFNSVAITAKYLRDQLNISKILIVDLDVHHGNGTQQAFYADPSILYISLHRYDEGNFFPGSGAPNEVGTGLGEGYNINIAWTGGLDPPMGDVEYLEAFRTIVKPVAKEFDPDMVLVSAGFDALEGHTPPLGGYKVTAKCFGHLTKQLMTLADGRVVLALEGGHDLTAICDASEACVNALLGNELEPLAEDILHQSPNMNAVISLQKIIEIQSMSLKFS
Sequence of Cytochrome P450 2D6 (P10635 whole entry): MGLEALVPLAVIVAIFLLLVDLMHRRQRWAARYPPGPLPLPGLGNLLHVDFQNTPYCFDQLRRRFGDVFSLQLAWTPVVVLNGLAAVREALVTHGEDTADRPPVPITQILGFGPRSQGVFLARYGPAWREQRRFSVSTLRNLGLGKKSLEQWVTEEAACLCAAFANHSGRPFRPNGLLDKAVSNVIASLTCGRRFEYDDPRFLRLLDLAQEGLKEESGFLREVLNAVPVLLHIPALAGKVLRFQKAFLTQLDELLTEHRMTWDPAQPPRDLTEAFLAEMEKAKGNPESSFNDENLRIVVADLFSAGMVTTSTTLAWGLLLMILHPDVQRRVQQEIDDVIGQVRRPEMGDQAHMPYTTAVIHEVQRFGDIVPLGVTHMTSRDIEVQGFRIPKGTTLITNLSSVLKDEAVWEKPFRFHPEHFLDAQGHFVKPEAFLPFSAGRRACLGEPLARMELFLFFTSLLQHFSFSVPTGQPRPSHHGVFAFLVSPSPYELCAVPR
Sequence of Histone deacetylase 1 (Q13547 whole entry): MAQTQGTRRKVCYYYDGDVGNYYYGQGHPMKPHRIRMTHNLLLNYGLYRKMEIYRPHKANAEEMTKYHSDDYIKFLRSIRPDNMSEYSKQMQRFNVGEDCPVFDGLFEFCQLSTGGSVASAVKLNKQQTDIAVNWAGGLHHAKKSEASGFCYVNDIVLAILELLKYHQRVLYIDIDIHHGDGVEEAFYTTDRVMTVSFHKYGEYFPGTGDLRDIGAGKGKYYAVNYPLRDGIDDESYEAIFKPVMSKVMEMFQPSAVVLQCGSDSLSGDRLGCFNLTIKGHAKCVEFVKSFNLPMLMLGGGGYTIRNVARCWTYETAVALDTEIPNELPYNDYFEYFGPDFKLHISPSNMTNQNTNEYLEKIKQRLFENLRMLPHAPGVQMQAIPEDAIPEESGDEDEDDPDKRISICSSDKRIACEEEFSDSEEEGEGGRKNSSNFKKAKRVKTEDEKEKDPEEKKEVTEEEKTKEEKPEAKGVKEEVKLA

CCCCc1nc2cc(/C=C/C(=O)NO)ccc2n1CCN(CC)CC.Cl.Cl
IC50 (HCT-116): 480 nM
Ki (Histone deacetylase 2): 27 nM
Ki (Histone deacetylase 11): 24 nM
Ki (Histone deacetylase 4): 16 nM
IC50 (Cytochrome P450 2C19): 5780 nM
IC50 (CYP1A): > 25000 nM
IC50 (Cytochrome P450 2D6): > 25000 nM
Ki [1]: 247 nM
Ki (Histone deacetylase 9): 24 nM
IC50 (PC-3): 340 nM

CCCCCCc1nc2cc(/C=C/C(=O)NO)ccc2n1CCN(C)C
IC50 (HCT-116): 330 nM
Ki (Histone deacetylase 2): 21 nM
Ki (Histone deacetylase 11): 11 nM
Ki (Histone deacetylase 4): 5.3 nM
IC50 (Cytochrome P450 2C19): 10300 nM
IC50 (CYP1A): > 25000 nM
Ki (Histone deacetylase 1): 19 nM
IC50 (Cytochrome P450 2D6): > 25000 nM
Ki [1]: 300 nM
Ki (Histone deacetylase 9): 11 nM
IC50 (PC-3): 250 nM

CN(C)CC(C)(C)Cn1c(CC(C)(C)C)nc2cc(/C=C/C(=O)NO)ccc21
IC50 (HCT-116): 800 nM
Ki (Histone deacetylase 2): 26 nM
Ki (Histone deacetylase 11): 14 nM
Ki (Histone deacetylase 4): 7.9 nM
IC50 (Cytochrome P450 2C19): 8100 nM
IC50 (CYP1A): > 25000 nM
Ki (Histone deacetylase 1): 24 nM
IC50 (Cytochrome P450 2D6): 13900 nM
Ki [1]: 94 nM
Ki (Histone deacetylase 9): 11 nM
IC50 (PC-3): 500 nM
